Legend:
[1] = biological target: T1, recombinant firefly luciferase (Photinus pyralis, UniProt P08659); experiment: Firefly luciferase activity assay; format: biochemical; conditions: 15 min at 37°C
T1 construct: purchased Sigma-Aldrich
Method: Recombinant firefly luciferase (Sigma-Aldrich, St. Louis, Missouri, United States) was diluted to 10^4 U/mg in 1× PBS (phosphate buffered saline) and subsequently incubated with NFA or the substances of interest for 15 min at 37°C. Afterwards, 50 µl per reaction mix was transferred into a white 96-well plate, to which 50 µl/well Dual-Glo® (Promega, Madison, Wisconsin, United States) was added and incubated for another 10 min at 37°C. Luminescence was analyzed with a plate reader.
Suppl. Figure 1: Fatty acids interfere with firefly luciferase making the luc-based assays not suitable for analysis of signaling pathways modulated by NFA. 10 4 units of firefly luciferase were incubated with 1 µM and 10 µM OA or NFA with different carbon chain length (A) and Michael acceptor position (B) for 15 min at 37°C. Firefly activity is presented as percentage of vehicle control (DMSO) mean + SD, n=5. Compared to vehicle control statistical significance was calculated by one-way ANOVA with Bonferroni post-test. P-values of **P ≦0.0021, **** P ≦0.0001 are considered significant. DMSO, dimethyl sulfoxide; 9NOA, 9-nitro oleic acid; NFA, nitro-fatty acids, OA, oleic acid. […]

Nrf-2 = Nrf-2 induction in HCT-116 cells (Western blot and ELISA); format: cell-based, human; conditions: 10 µM, 4 h, HCT-116, Western blot and ELISA
Method: The Nrf-2 and NF-κB transcription factors in the nuclear extracts were detected using an Nrf-2 Transcription Assay Kit (Cayman Chemical, # 600590) and NF-κB (p65 and p50) Transcription Factor Assay Kit (Cayman Chemical, # 10007889 and # 10006912). Prior to assay performance, the nuclear extracts were generated using a Nuclear Extraction Kit (Cayman Chemical, # 10009277). The assay was performed according to the manufacturer’s instructions. For all kits, the nuclear extracts were incubated overnight at 4°C. Development was carried out for 15–20 min or until the wells turned medium to dark blue. Five minutes after the stop solution had been added, the absorbance was read at 450 nm using a plate reader.
HCT-116 and A549 cells were washed with 1× PBS, and cell extracts were generated using a Nuclear Extraction Kit (Cayman Chemical, #10009277) according to the manufacturer’s instructions, whereas whole-cell lysates were obtained using SDS lysis buffer (55.5 mM Tris-HCl pH 6.8, 2.2% SDS, 9% glycerol supplemented with protease (cOmplete® Protease Inhibitor Cocktail, Roche, Mannheim, Germany) and phosphatase (PhosStop® Easy Pack, Roche, Mannheim, Germany) inhibitors. Protein concentrations from the nuclear and cytosolic fractions were determined with a bicinchoninic acid (BCA) protein assay kit (Pierce™, Rockford, Illinois, United States). Cytoplasmic and nuclear extracts (100 µg each) and 30 µg whole-cell lysates were diluted in 5× Laemmli loading dye and denatured for 10 min at 95°C, loaded on a 10% SDS polyacrylamide gel, and separated by gel electrophoresis for 15 min at 80 V followed by 60 min at 120 V. The separated proteins were blotted onto a nitrocellulose membrane (Hybond-C Extra, Amersham Biosciences Ltd., UK) using the Mini Trans-Blot® module (Bio-Rad, Hercules, California, United States) for 90 min at 90 V. The membrane was blocked with Odyssey blocking buffer (Li-Cor Biosciences, Bad Homburg, Germany) or 5% milk powder in TBS-T (Tris Buffered Saline with 0.1% Tween) for 1 h at room temperature (RT). The membranes were incubated with the primary antibodies overnight at 4°C, and then with the secondary antibodies for 1 h at RT. The primary antibodies were diluted 1:1,000 and the secondary antibodies were diluted 1:10,000 to 1:20,000. […]
FIGURE 2 Effects of NFA on Nrf-2 expression in colorectal cancer cells. HCT-116 cells were treated with 10 µM NFA and tBHQ and/or MMF for 4 h, and Nrf-2 levels were analyzed by western blotting and ELISA. […] (B) Nrf-2 expression levels were evaluated with an ELISA after incubation with NFA with different carbon chain lengths and Michael acceptor positions. […]

sEH = experiment: Cell-based sEH activity assay in COS-7 cells; design: species or system Afrikan green monkey; conditions: 10 µM, 24 h
Method: sEH activity in the cells was analyzed using a Soluble Epoxide Hydrolase Cell-Based Assay Kit (Cayman Chemical, #600090). […] Following incubation, the cells were processed according to the manufacturer’s instructions. The assay uses an internal signal subtraction to minimize potential errors generated by sEH-independent product formation due esterase mediated hydrolysis. The fluorescence intensity of the samples was measured in a plate reader at excitation/emission wavelengths of 330/465 nm sEH activity was calculated by the 6-methoxy-2-naphthaldehyde standard curve.
Suppl. Figure 2: Effects of NFA on sEH activity in COS-7 cells. sEH activity in COS-7 cells treated with NFA (10 µM) differ in (A) chain length and (B) Michael acceptor position and […]
Cells were lysed, and hydrolase activity was measured by Epoxy Fluor
7 lysis presented as mean + SD, n=2-3. […] OA, […]
oleic acid, she, soluble epoxide hydrolase.
(1 picture or pasted object on this page, not shown here)

T1 sequence (P08659 whole entry): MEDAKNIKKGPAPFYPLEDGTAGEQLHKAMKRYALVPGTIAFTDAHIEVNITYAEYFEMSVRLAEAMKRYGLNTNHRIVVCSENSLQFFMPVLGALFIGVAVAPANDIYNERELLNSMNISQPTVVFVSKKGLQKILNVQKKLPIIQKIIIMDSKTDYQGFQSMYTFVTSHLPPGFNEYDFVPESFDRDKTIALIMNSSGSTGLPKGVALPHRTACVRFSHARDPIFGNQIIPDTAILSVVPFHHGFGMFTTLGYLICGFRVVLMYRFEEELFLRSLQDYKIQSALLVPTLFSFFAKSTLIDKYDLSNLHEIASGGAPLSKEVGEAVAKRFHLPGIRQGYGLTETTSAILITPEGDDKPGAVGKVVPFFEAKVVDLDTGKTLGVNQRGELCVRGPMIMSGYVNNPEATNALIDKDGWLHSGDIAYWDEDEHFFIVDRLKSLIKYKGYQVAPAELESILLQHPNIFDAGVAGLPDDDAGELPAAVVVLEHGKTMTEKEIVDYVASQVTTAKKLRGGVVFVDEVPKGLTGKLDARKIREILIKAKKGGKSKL

| Structure (SMILES) | inhibition at 1 µM ([1]; 1 µM) | inhibition of recombinant firefly luciferase ([1]; 10 µM) | induction of Nrf-2 (protein levels / signaling) (Nrf-2) | inhibition of sEH activity in COS-7 cells (sEH) |
| --- | --- | --- | --- | --- |
| CCCCCCCCC=C(CCCCCCCC(=O)O)[N+](=O)[O-] [18.9.9, 9-nitro-octadec-9-enoic acid] | > 50% | complete inhibition | strongest effects | – |
| CCCCCCCC/C=C\CCCCCCCC(=O)O [OA, oleic acid, reference compound] | – | – | did not affect | strong suppressive effect |
